Assay results from patent US9782399B2, “Pharmaceutical compositions which inhibit FKBP52-mediated regulation of androgen receptor function and methods of using same” (The United States of America, as represented by the …, priority 2009, dated 2017).

Test system: FKBP52-enhanced AR function
Assay: Yeast AR-mediated β-galactosidase reporter assay, tester strain (AR-P723S + FKBP52)
Assay type: cell-based
Settings: DHT-induced β-galactosidase reporter
Description: To investigate FTA inhibitory activity, a modified yeast-based assay was created to screen an in-house compound library. The receptor-mediated β-galactosidase assays were initially based on published methods ((Riggs D L, et al., EMBO J., 22:1158-67 (2003); Cox M B, et al., Toxicol. Lett. 129:13-21 (2002) and Balsiger, H. A., and Cox, M. B., in Methods in Molecular Biology: The Nuclear Receptor Superfamily, vol. 505. Edited by I. J. McEwan. The Humana Press, Totowa, N.J. (2008)), however, the assay methods were modified substantially to allow use of a 96-well plate format. All cDNAs for the FKBP proteins were obtained from the laboratory of David Smith at the Mayo Clinic, Arizona. The AR-P723S mutant was originally described previously (Cheung-Flynn, J. et al. (2005)).
All receptors and FKBP proteins were expressed from a set of yeast expression vectors that are commercially available (Mumberg, D., et al., Gene 156: 119-122 (1995)). […]
The strains were cultivated overnight using a shaking incubator in SC-HUW medium (synthetic complete medium lacking histidine, uracil and tryptophan). […] About one hour later, the plate was read in a luminometer. The measured RLU (relative light units) was normalized to the cell density of the cultures, at the time they were added to the plates, to give a measure of RLU/OD unit. […]

Cc1ccc(NC(=O)c2ccccc2C(=O)O)cc1C [Compound 1]
inhibition of FKBP52-enhanced AR function: inhibits FKBP52-enhanced AR function
